Results published in PubChem BioAssay (NCI).
Several values for one entry are separate records, joined by “and”; a condition that tells them apart may be missing. Identical values can stand only once.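 Step 1: Grow cells in 96-well plates. Step 2: Expose to compound for 48 hours at 5 concentrations. Step 3: Interpolate endpoints linearly; if unreached, use highest concentration. GI50 marks 50% less growth. TGI: total growth inhibition.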

Columns and labels:
Test in all cases: DTP human tumour cell line panel, 48 h
IGROV1 ovarian = tested on: IGROV1 ovarian
DU-145 prostate = tested on: DU-145 prostate
COLO 205 colon = tested on: COLO 205 colon
SW-620 colon = tested on: SW-620 colon
A549 NSCLC = tested on: A549 NSCLC
KM12 colon = tested on: KM12 colon
OVCAR-8 ovarian = tested on: OVCAR-8 ovarian
RXF 393 renal = tested on: RXF 393 renal
SK-OV-3 ovarian = tested on: SK-OV-3 ovarian
MDA-MB-435 = tested on: MDA-MB-435

SMILES | TGI (IGROV1 ovarian) | TGI (DU-145 prostate) [µM] | TGI (COLO 205 colon) [µM] | TGI (SW-620 colon) [µM] | TGI (A549 NSCLC) | TGI (KM12 colon) | TGI (OVCAR-8 ovarian) | TGI (RXF 393 renal) | TGI (SK-OV-3 ovarian) [µM] | TGI (MDA-MB-435) | GI50 (IGROV1 ovarian) [µM] | GI50 (COLO 205 colon) [µM] | GI50 (SW-620 colon) [µM] | GI50 (A549 NSCLC) [µM] | GI50 (RXF 393 renal) [µM] | GI50 (KM12 colon) [µM] | GI50 (SK-OV-3 ovarian) [µM] | GI50 (OVCAR-8 ovarian) [µM]
Cn1c(=O)c2[nH]cnc2n(C)c1=O | > 100 µM | > 100 | > 100 | > 100 | > 100 µM | > 100 µM | > 100 µM |  |  |  |  |  |  |  |  |  |  | 
O=C(NNc1ccc([N+](=O)[O-])cc1)C1OC(CO)C(O)C1O (centres undefined) | > 100 µM |  | > 100 | 71.3 | > 100 µM | > 100 µM | > 100 µM | > 100 µM | > 100 |  |  |  |  |  |  |  |  | 
Cc1cccc(-c2cc(=O)c3c(C)ccnc3[nH]2)c1 | > 100 µM | > 100 | 2.68 |  | > 100 µM | 16.8 µM | > 100 µM | > 100 µM | > 100 |  |  |  |  |  |  |  |  | 
O=c1[nH]nc(Cc2ccc([N+](=O)[O-])cc2)[nH]1 | > 100 µM | > 100 | > 100 | > 100 | > 100 µM | > 100 µM | > 100 µM | > 100 µM |  | > 100 µM |  |  |  |  |  |  |  | 
NCCCN1CCN(CCCNc2ccc3ncn4c5ccccc5c(=O)c2c34)CC1 | 8.17 µM | 8.2 | 2.66 | > 25 | > 25 µM | 13.1 µM | 19.5 µM |  | > 25 | > 25 µM |  |  |  |  |  |  |  | 
C=C1C[C@]23CC[C@@H]4C(CO)(CO)CC(=O)C[C@]4(C)[C@@H]2C(O)C[C@H]1C3 (some centres undefined) | > 100 µM | > 100 | > 100 | > 100 | > 100 µM | > 100 µM | > 100 µM |  | > 100 | > 100 µM |  |  |  |  |  |  |  | 
Cn1cnc([N+](=O)[O-])c1Sc1nncc2[nH]cnc12 | > 100 µM |  | > 100 | > 100 | > 100 µM | > 100 µM | > 100 µM |  | > 100 | > 100 µM |  |  |  |  |  |  |  | 
C=C1C(=O)OC2C1CC1OC2C(C)CCC/C(C)=C\CCC1(C)O (centres undefined) | 49.5 µM |  | 58.1 | 32.6 | > 78.3 µM | 59 µM | 31.4 µM | 17.9 µM | 119 |  |  |  |  |  |  |  |  | 
CCCCN=C(OC1C=CCCC1)SC (centres undefined) | > 100 µM | > 100 | > 100 | > 100 | > 100 µM |  | > 100 µM |  | > 100 | > 100 µM |  |  |  |  |  |  |  | 
COc1ccc(C2=C(N)c3ccccc3C2=O)cc1 | > 100 µM | > 100 | > 100 | > 100 | > 100 µM | > 100 µM | > 100 µM |  | > 100 | > 100 µM |  |  |  |  |  |  |  | 
CC1(C)CN=C(c2ccc3ccccc3c2O)N1 | > 100 µM | > 100 | > 100 | > 100 | > 100 µM | > 100 µM |  |  |  | > 100 µM |  |  |  |  |  |  |  | 
COc1ccc(/C(Cl)=C(\C=O)c2ccc(Cl)cc2)cc1 | 42.1 µM |  |  | > 100 | > 100 µM |  | 45.6 µM | 57.3 µM | > 100 |  |  |  |  |  |  |  |  | 
O=C(c1ccccc1)c1ccc2c(c1)N=C(c1ccc(Cl)c(Cl)c1)CC(c1ccc3ccccc3c1)N2 (centres undefined) | > 100 µM |  | > 100 | > 100 | > 100 µM | > 100 µM | > 100 µM | > 100 µM | > 100 |  |  |  |  |  |  |  |  | 
O.O=[Se](=O)(O)O.[NH-]C1CCCCC1[NH-].[Pt+2] (centres undefined) | > 100 µM |  | 67.8 | > 100 | > 100 µM | > 100 µM | > 100 µM | 30.5 µM | > 100 |  | 7.98 | 5.82 | 2.11 | 5.26 | 4.63 | 47.2 | 64.8 | 7.55
O=C(O)C1(Cc2ccc3c(c2)CCC3)Cc2cc3c(cc2C1)CCC3 | > 100 µM | > 100 | > 100 | > 100 | > 100 µM | > 100 µM | > 100 µM |  | > 100 | > 100 µM |  |  |  |  |  |  |  | 
CC(=O)N/N=C1\NN(C(C)=O)C2(S1)C(=O)Nc1ccccc12 (centres undefined) | > 100 µM | > 100 |  | > 100 |  | > 100 µM | > 100 µM |  | > 100 | > 100 µM |  |  |  |  |  |  |  | 
COc1cc(/C=C/C=C2\CC(C)C/C(=C\C=C\c3ccc(O)c(OC)c3)C2=O)ccc1O (centres undefined) | 20.8 µM | > 100 | > 100 | > 100 | > 100 µM | > 100 µM | 30.9 µM |  | 18.2 | 41 µM |  |  |  |  |  |  |  | 
C#Cc1ccccc1C(=O)OC | > 100 µM |  | > 100 | > 100 | > 100 µM | > 100 µM | > 100 µM | > 100 µM | > 100 |  |  |  |  |  |  |  |  | 
CC1=NN(C(=O)Cc2ccccc2)C(=O)/C1=C\c1cccc(O)c1 |  |  | > 100 | > 100 | > 100 µM | > 100 µM | > 100 µM |  |  |  |  |  |  |  |  |  |  | 
Nc1ncnc2c(C3OC(CO)C(O)C3O)c[nH]c12 (centres undefined) | 0.0637 µM and 0.0661 µM | 0.113 |  |  | 0.0775 µM and 0.434 µM | 0.396 µM and 0.465 µM | 0.0845 µM and 0.771 µM | 0.126 µM and 0.0746 µM |  | 0.182 µM and 0.125 µM |  | 0.0193 |  |  |  |  |  | 
Cc1ccc(NC(=O)NC23CC4CC(CC(F)(C4)C2)C3)cc1 | > 100 µM |  | > 100 | > 100 | > 100 µM | > 100 µM | > 100 µM | > 100 µM | > 100 |  |  |  |  |  |  |  |  | 
